Active and inactive are the calls of the source.
Key:
[1] = molecular target: Dual specificity protein phosphatase 3 (Homo sapiens, UniProt P51452); assay: SAR VHR1 Fluorescent Assay for In Vitro dose response studies Set 2. [Related pubchem assays (depositor defined):AID1654, AID1661, AID1878]; type: functional
[2] = molecular target: T1, Tyrosine-protein phosphatase non-receptor type 7 (Homo sapiens, UniProt P35236); assay: SAR analysis of chemical inhibitors of HePTP using a Fluorescent assay - Set 2. [Related pubchem assays (depositor defined):AID1059, AID1077, AID1661, AID2085, AID521]; type: functional
T1 sequence (P35236 whole entry): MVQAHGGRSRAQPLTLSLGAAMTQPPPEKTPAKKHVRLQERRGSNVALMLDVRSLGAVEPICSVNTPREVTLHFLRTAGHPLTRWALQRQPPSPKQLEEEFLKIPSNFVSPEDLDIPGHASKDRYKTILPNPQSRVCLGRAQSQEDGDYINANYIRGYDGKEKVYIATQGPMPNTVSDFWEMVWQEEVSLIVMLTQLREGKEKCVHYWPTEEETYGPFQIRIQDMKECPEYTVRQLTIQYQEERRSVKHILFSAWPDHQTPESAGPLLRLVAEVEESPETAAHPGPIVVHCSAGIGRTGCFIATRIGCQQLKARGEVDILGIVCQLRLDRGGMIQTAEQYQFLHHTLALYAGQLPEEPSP

[3] = molecular target: T2, Coagulation factor XII (Homo sapiens, UniProt P00748); assay: Factor XIIa Dose Response Confirmation from Single Well HTS. [Related pubchem assays (depositor defined):AID701]; type: functional
T2 sequence (P00748 whole entry): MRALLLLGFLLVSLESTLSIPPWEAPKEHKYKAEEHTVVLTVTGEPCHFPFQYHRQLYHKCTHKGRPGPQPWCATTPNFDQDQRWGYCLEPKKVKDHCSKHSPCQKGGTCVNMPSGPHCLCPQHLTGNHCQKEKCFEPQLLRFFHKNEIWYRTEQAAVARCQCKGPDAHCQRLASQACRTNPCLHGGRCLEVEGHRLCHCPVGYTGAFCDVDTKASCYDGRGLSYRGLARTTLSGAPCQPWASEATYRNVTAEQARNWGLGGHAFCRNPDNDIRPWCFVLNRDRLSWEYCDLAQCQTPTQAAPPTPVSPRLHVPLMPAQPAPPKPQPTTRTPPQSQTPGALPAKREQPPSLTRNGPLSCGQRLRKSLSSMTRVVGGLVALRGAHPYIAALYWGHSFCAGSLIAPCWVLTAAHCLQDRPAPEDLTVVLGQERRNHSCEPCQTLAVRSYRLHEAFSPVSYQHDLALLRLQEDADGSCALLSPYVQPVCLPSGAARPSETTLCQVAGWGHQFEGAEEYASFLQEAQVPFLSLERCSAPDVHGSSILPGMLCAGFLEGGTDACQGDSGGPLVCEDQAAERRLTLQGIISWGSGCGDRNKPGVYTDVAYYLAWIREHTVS

[4] = molecular target: T2, Coagulation factor XII; assay: FXIIa inhibitor potency, concentration-response, biochemical (AID 716); type: functional
[5] = molecular target: Hexokinase (Trypanosoma brucei, UniProt Q38C41); assay: Confirmation assay for inhibitors of Trypanosoma brucei hexokinase 1-Analogue-first series. [Related pubchem assays (depositor defined):AID1430, AID1632, AID2516, AID2560, AID2579, AID2600, AID449725, AID492951]; type: functional
[6] = molecular target: T3, Kappa-type opioid receptor (Homo sapiens, UniProt P41145); assay: SAR analysis of small molecule antagonists of the kappa opioid receptor via a luminescent beta-arrestin assay - Set 3. [Related pubchem assays (depositor defined):AID1777, AID1778, AID1785, AID1786, AID1966, AID2133, AID2136, AID2285, AID2495]; type: functional
[7] = molecular target: Mu-type opioid receptor (Homo sapiens, UniProt P35372); assay: SAR Analysis of Antagonists of the MOR Receptor using an Image-Based Assay - Set 3. [Related pubchem assays (depositor defined):AID1777, AID1785, AID1786, AID1966, AID2133, AID2136, AID2284, AID2285, AID2420]; type: functional
[8] = molecular target: T3, Kappa-type opioid receptor; assay: SAR analysis of Antagonists of the Kappa Opioid Receptor (KOR) using an Image-Based Assay - Set 3. [Related pubchem assays (depositor defined):AID1777, AID1785]; type: functional
[9] = molecular target: Delta-type opioid receptor (Homo sapiens, UniProt P41143); assay: SAR Analysis of Antagonists of the DOR Receptor using an Image-Based Assay - Set 3. [Related pubchem assays (depositor defined):AID1777, AID1785]; type: functional;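 note: U2OS cells expressing DOR1 and beta-arrestin GFP stimulated with 100 nM SNC80; imaging of GFP-tagged beta-arrestin moving into spots after receptor activation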
[10] = molecular target: T4, Peroxisome proliferator-activated receptor gamma (Homo sapiens, UniProt P37231); assay: PPARg partial agonists, dose response, cell-based, luminescence, assay provider (AID 504447); type: functional
T4 sequence (P37231 whole entry): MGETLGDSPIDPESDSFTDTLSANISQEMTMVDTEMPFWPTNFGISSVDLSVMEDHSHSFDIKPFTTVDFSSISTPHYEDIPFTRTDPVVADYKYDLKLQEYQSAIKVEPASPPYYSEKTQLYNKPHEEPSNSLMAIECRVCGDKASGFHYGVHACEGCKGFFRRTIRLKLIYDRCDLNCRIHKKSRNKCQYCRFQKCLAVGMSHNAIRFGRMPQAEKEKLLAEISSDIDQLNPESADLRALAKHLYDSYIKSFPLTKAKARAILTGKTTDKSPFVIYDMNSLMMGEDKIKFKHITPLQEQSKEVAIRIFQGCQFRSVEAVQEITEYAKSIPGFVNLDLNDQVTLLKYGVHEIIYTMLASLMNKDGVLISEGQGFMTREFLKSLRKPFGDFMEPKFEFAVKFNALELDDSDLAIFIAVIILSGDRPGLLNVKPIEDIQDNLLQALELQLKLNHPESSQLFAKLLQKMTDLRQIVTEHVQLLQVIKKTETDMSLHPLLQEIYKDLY

[11] = molecular target: Peroxisome proliferator-activated receptor alpha (Homo sapiens, UniProt Q07869); assay: Late stage assay provider counterscreen for partial agonists of the peroxisome proliferator-activated receptor gamma (PPARg): Luminescence-based cell-based dose response assay for partial agonists of the peroxisome proliferator-activated receptor alpha (PPARA). [Related pubchem assays (depositor defined):AID1051, AID1300, AID1319, AID1679, AID1808, AID504446, AID504447, AID504452, AID504453, AID631]; type: functional
[12] = molecular target: T4, Peroxisome proliferator-activated receptor gamma; assay: PPARg ligand-binding domain binders, dose response, PPARg partial agonist project, biochemical, TR-FRET, LanthaScreen (AID 504446)

T3 sequence (P41145 whole entry): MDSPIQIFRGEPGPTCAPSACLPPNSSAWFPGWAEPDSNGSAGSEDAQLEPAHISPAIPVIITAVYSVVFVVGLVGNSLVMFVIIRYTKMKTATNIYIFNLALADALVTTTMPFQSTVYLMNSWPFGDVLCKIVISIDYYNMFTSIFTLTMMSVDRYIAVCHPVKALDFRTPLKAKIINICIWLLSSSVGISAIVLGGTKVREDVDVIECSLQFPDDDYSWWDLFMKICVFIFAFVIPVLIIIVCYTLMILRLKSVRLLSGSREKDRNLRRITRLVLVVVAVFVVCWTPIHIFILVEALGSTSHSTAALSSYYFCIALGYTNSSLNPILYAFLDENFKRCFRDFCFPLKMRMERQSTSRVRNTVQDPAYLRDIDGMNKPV
Sequence of Peroxisome proliferator-activated receptor alpha (Q07869 whole entry, the tested form may be a part): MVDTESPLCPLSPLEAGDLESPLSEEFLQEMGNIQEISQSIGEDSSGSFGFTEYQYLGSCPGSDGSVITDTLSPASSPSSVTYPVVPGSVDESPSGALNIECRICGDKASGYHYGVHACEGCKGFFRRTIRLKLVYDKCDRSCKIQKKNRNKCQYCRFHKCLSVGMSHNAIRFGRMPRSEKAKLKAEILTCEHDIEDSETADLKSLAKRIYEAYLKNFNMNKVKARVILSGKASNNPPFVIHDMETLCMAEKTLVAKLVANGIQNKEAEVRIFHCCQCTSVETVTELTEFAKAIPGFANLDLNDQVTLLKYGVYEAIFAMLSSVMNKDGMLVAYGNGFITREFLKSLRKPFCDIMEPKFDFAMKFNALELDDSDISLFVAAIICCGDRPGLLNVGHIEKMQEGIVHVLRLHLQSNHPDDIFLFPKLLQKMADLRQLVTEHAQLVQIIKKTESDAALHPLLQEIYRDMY
Sequence of Delta-type opioid receptor (P41143 whole entry): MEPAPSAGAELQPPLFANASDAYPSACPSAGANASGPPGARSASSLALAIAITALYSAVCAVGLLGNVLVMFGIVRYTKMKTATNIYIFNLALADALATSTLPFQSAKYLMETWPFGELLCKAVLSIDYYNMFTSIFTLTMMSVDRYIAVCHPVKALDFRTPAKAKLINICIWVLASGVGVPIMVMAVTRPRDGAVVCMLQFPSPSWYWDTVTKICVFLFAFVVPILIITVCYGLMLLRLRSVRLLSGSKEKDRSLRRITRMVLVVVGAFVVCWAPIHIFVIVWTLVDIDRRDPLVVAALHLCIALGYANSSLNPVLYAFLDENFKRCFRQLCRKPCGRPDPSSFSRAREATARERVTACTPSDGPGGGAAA
Sequence of Hexokinase (Q38C41 whole entry): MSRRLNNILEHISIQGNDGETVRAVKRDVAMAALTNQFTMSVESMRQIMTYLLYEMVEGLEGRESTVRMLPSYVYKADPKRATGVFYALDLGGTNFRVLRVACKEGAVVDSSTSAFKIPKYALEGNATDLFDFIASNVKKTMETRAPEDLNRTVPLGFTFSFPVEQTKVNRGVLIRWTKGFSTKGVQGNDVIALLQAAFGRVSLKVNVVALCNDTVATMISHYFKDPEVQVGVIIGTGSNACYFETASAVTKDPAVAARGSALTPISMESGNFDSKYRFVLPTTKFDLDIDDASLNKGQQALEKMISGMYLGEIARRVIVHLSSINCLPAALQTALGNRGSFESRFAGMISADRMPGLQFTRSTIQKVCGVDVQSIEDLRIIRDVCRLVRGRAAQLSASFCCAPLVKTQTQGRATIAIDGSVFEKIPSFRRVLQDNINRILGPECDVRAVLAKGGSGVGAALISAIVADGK
Sequence of Mu-type opioid receptor (P35372 whole entry): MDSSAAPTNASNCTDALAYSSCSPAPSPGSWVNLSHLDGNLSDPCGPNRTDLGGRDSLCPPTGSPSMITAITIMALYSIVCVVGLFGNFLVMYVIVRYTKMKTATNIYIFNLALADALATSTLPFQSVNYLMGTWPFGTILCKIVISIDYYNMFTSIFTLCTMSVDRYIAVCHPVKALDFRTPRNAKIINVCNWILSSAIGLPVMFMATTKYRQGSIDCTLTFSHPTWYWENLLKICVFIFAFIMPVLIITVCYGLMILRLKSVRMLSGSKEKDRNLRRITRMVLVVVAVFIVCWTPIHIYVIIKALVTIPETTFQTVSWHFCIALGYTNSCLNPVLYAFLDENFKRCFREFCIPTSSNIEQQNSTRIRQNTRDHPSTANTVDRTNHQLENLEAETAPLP
Sequence of Dual specificity protein phosphatase 3 (P51452 whole entry): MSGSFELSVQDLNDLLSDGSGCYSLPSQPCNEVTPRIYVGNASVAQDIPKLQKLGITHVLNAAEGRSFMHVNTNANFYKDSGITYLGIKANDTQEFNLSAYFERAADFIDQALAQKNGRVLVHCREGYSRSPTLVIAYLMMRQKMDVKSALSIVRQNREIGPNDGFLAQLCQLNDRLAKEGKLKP

## Cc1ccc(-n2c(N)c(C(=O)N3CCOCC3)sc2=S)cc1
[1]
  IC50: > 100 µM (inactive)
[2]
  IC50: > 100 µM (inactive)

## O=C(Oc1nsnc1N1CCOCC1)c1ccccc1
[3]
  IC50: 4.38 µM (active)

## Cc1nnc(NC(=O)C2CCN(c3cnccn3)CC2)s1
[4]
  IC50: > 50 µM (inactive)

## O=C(Nc1ccccc1)c1cc(F)ccc1S
[5]
  IC50: > 25 µM (inactive)

## CCc1ccc(S(=O)(=O)NCc2ccc(C(=O)NCCN(Cc3ccc(OC)cc3)C(C)C)cc2)cc1
[6]
  IC50: 0.873 µM (active)
[7]
  IC50: > 32 µM (inactive)
[8]
  IC50: 0.264 µM (active)
[9]
  IC50: > 32 µM (inactive)

## CCCCOC(=O)CCN1C(=O)/C(=C/c2ccccc2)SC1=S
[10]
  EC50: 3.2 µM (active)
[11]
  EC50: 0.12 µM (active)
[12]
  IC50: 3.2 µM (active)

Reference: ChEMBL document CHEMBL1201862, “PubChem BioAssay data set” (2004)
